From paper PMC6271077, “Synthesis, Anticancer and Antibacterial Activity of Salinomycin N-Benzyl Amides” (Molecules, 2014)
Like-named read-outs stand apart in the source and are kept apart here.

Columns and labels:
LoVo = assay: Antiproliferative SRB assay, LoVo; type: cell-based, human; conditions: for IC50: 72 h, SRB, mean ± SD, read-out: IC50 LoVo; for SI LoVo: SI = IC50 BALB/3T3 / IC50 LoVo
From the text: (§1) Four human cancer cell lines and one normal cell line were used to evaluate anticancer activity of SAL and its N-benzyl amides: human acute promyelocytic leukemia (HL-60) and its vincristine resistant subline (HL-60/vinc), human colon adenocarcinoma cell lines sensitive (LoVo) and resistant to doxorubicin (LoVo/dx) as well as also normal murine embryonic fibroblast cell line (BALB/3T3). The BALB/3T3 cell line was purchased from the American Type Culture Collection (ATCC Rockville, MD, USA), HL-60 cell line from European Type Culture Collection by courtesy of Professor Spik and Dr Mazurier (Laboratory of Biological Chemistry USTL, Lille, France) and HL-60/vinc, LoVo and LoVo/dx by courtesy of Prof. E. Borowski (Technical University of Gdańsk, Gdańsk, Poland). All the cell lines are maintained in the Institute of Immunology and Experimental Therapy (IIET), Wrocław, Poland.
(§2) Human leukemia cells were cultured in ISCOVE medium (IIET, Wroclaw, Polond) containing 10% fetal bovine serum and 2 mM L-glutamine (Sigma Aldrich) and 1 µg/100 mL […] for HL-60/vinc (Sigma Aldrich). Human colon adenocarcinoma cell lines were cultured in mixture of OptiMEM and RPMI 1640 (1:1) medium (IIET) supplemented with 5% fetal bovine serum (Thermo Fisher Scientific, Waltham, MA, USA), 2 mM L-glutamine, 1 mM sodium pyruvate (Sigma Aldrich) and 10 µg/100 mL doxorubicin for LoVo/dx (Sigma Aldrich). Murine embryonic fibroblast cells were cultured in Dulbecco medium (Gibco, Darmstadt, Germany) supplemented with 10% fetal bovine serum (Thermo Fisher Scientific) and 2 mM L-glutamine (Sigma Aldrich). All culture media contained antibiotics: 100 U/mL penicillin (Sigma Aldrich) and 100 µg/mL streptomycin (Polfa-Tarchomin, City, Poland). All cell lines were cultured during entire experiment in humid atmosphere at 37 °C and 5% CO2.
(§3) Twenty four hours before adding the tested compounds all cell lines were seeded in 96-well plates (Sarstedt, Nümbrecht, Germany) in appropriate media with 10^4 cells per well. All cell lines were exposed to each tested agent at four different concentrations from the range 100 to 0.1 µg/mL for 72 h. The cells were also exposed to the reference drugs: cisplatin (Accord, London, UK) and doxorubicin hydrochloride (Fluka, St. Louis, MO, USA). Additionally, all cell lines were exposed to DMSO (the solvent used for tested compounds, Sigma Aldrich) at the concentrations corresponding to those in the tested agent dilutions. For adherent cells sulphorodamine B assay was performed and MTT assay for leukemia cells.
(§4) After 72 h of incubation with tested compounds the cells were fixed in situ by gently adding of 50 µL per well of cold 50% trichloroacetic acid TCA (Avantor Performance Materials, City, Poland) and were incubated at 4 °C for 1 h. Then the wells were washed four times with water and air-dried. Next, 50 µL of 0.2% solution of sulphorodamine B (Sigma Aldrich) in 1% acetic acid (Avantor Performance Materials) were added to each well and plates were incubated at room temperature for 0.5 h. After incubation time, unbound dye was removed by washing plates four times with 1% acetic acid, whereas the stain bound to cells was solubilized with 150 µL of 10 mM Tris base (Sigma Aldrich). Absorbance of each solution was read at Synergy H4 photometer (BioTek Instruments, Winooski, VT, USA) at 540 nm wavelength.
(§5) Results are presented as mean IC50 (concentration of the tested compound that inhibits cell proliferation by 50%) ± standard deviation. IC50 values were calculated in Cheburator 1.0.2, Dmitry Nevozhay software for each experiment. Compounds at each concentration were tested in triplicates in single experiment and each experiment was repeated at least three times independently. The IR was defined as the ratio of IC50 for a given compound calculated for resistant cell line to that measured for its parental drug sensitive cell line (Table 4).

HL-60/vinc = assay: Antiproliferative MTT assay, HL-60/vinc; type: cell-based, human; conditions: for IR HL-60/vinc: IR = IC50 HL-60/vinc / IC50 HL-60; for SI HL-60/vinc: SI = IC50 BALB/3T3 / IC50 HL-60/vinc; for IC50: vincristine-resistant subline, 72 h, MTT, mean ± SD, NA: not active in concentrations used (up to 100 µg/mL), read-out: IC50 HL-60/vinc
From the text: as §1, §2, §3
(§6) Proliferation inhibition of leukemia cells by tested compounds was measured by means of MTT assay. Thus, 20 µL of 3-(4,5-dimethylthiazol-2-yl)-2,5-diphenyl tetrazolium bromide solution (Sigma Aldrich) were added to each well and plates were left in cell incubator for 4 h to allow the cells to metabolize yellow MTT to blue formazan. Then, the lysing mixture consisting of 225 mL dimethylformamide, 67.5 g sodium dodecyl sulfate (both from Sigma Aldrich) and 275 mL of distilled water was added in 80 µL volume per well. Plates were incubated for 24 h for the formazan crystals to be released from cells, dissolved and then absorbance of each well was read at Synergy H4 photometer (BioTek Instruments) at 570 nm wavelength.
as §5

HL-60 = assay: Antiproliferative MTT assay, HL-60; type: cell-based, human; conditions: for IC50: 72 h, MTT, mean ± SD, NA: not active in concentrations used (up to 100 µg/mL), read-out: IC50 HL-60; for SI HL-60: SI = IC50 BALB/3T3 / IC50 HL-60
From the text: as §1, §2, §3, §6, §5

BALB/3T3 = assay: Antiproliferative SRB assay, normal fibroblasts BALB/3T3; type: cell-based; conditions: 72 h, mean ± SD, read-out: IC50 BALB/3T3 (normal cells)
From the text: as §1, with “Poland. […]” for “Poland.”
After 72 h of incubation with tested compounds the cells were fixed in situ by gently adding of 50 µL per well of cold 50% trichloroacetic acid TCA (Avantor Performance Materials, City, Poland) and were incubated at 4 °C for 1 h. […] Absorbance of each solution was read at Synergy H4 photometer (BioTek Instruments, Winooski, VT, USA) at 540 nm wavelength. […]

LoVo/dx = assay: Antiproliferative SRB assay, LoVo/dx; type: cell-based, human; conditions: for IR LoVo/DX: IR = IC50 LoVo/dx / IC50 LoVo; for SI LoVo/DX: SI = IC50 BALB/3T3 / IC50 LoVo/dx; for IC50: doxorubicin resistant subline, 72 h, SRB, mean ± SD, read-out: IC50 LoVo/dx
From the text: as §1, §2, §3, §4, §5

Row | Structure (SMILES) | IC50 (LoVo) | SI LoVo (LoVo) | IR HL-60/vinc (HL-60/vinc) | SI HL-60/vinc (HL-60/vinc) | IC50 (HL-60/vinc) | IC50 (HL-60) | SI HL-60 (HL-60) | IC50 (BALB/3T3; normal murine embryonic fibroblasts) | IR LoVo/DX (LoVo/dx) | SI LoVo/DX (LoVo/dx) | IC50 (LoVo/dx) | IC50 (LoVo; Homo sapiens, LoVo) | IC50 (HL-60/vinc; Homo sapiens, HL60/vinc) | IC50 (HL-60; Homo sapiens, HL-60) | IC50 (BALB/3T3; Mus musculus, BALB/3T3, normal murine embryonic fibroblasts) | IC50 (LoVo/dx; Homo sapiens, LoVo/DX)
1 | N.N.[Cl][Pt][Cl] [cisplatin, reference compound] | 3700 ± 1200 nM | 1.43 | 6.87 | 0.77 | 6870 ± 1630 nM | 1000 ± 230 nM | 5.30 | 5300 ± 2930 nM | 1.41 | 1.02 | 5200 ± 1930 nM |  |  |  |  | 
2 | COc1cccc2c1C(=O)c1c(O)c3c(c(O)c1C2=O)C[C@@](O)(C(=O)CO)C[C@@H]3O[C@H]1C[C@H](N)[C@H](O)[C@H](C)O1 [doxorubicin, reference compound] |  | 1.20 | 22.00 | 0.20 |  |  | 4.50 |  | 36.40 | 0.03 |  | 150 ± 60 nM | 880 ± 260 nM | 40 ± 40 nM | 180 ± 70 nM | 5460 ± 1560 nM
